Data reported in patent US20240158446A1, “CYCLIC COMPOUND HAVING SELECTIVE INHIBITORY ACTION ON KRAS OVER HRAS AND NRAS” (CHUGAI SEIYAKU KABUSHIKI KAISHA, priority 2021, published 2024).
Like-named read-outs stand apart in the source and are kept apart here.

How the values were obtained:
[1] = biological target: GDP-bound KRAS wild-type protein (Homo sapiens, UniProt P01116); assay: Binding to KRAS by surface plasmon resonance (SPR), Single Cycle Kinetics; conditions: GDP-bound KRAS wild-type protein, read-out: KRAS KD
Chain of GDP-bound KRAS wild-type protein (P01116 whole entry): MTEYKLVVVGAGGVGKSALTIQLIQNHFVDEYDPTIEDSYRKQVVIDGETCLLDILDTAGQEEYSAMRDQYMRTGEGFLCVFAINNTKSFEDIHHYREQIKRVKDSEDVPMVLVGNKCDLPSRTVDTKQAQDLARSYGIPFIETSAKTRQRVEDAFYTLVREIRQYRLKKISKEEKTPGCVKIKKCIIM

[2] = biological target: GDP-bound NRAS wild-type protein (Homo sapiens, UniProt P01111); assay: Binding to NRAS by surface plasmon resonance (SPR), Single Cycle Kinetics; conditions: for NRAS/KRAS (ratio of KD value for NRAS to KD value for KRAS): SPR, GDP-bound NRAS wild-type protein vs GDP-bound KRAS wild-type protein; for NRAS/KRAS (ratio of KD value with respect to GDP-bound NRAS wild-type protein to KD value with respect to KRAS): SPR KD ratio NRAS/KRAS, class symbols
Chain of GDP-bound NRAS wild-type protein (P01111 whole entry): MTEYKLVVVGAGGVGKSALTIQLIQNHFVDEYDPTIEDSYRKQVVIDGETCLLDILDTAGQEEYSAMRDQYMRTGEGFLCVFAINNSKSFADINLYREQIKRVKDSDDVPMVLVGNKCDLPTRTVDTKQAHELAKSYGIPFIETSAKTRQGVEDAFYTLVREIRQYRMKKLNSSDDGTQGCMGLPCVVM

[3] = biological target: GDP-bound HRAS wild-type protein (Homo sapiens, UniProt P01112); assay: Binding to HRAS by surface plasmon resonance (SPR), Single Cycle Kinetics; conditions: for HRAS/KRAS (ratio of KD value for HRAS to KD value for KRAS): SPR, GDP-bound HRAS wild-type protein vs GDP-bound KRAS wild-type protein; for HRAS/KRAS (ratio of KD value with respect to GDP-bound HRAS wild-type protein to KD value with respect to KRAS): SPR KD ratio HRAS/KRAS, class symbols
Chain of GDP-bound HRAS wild-type protein (P01112 whole entry): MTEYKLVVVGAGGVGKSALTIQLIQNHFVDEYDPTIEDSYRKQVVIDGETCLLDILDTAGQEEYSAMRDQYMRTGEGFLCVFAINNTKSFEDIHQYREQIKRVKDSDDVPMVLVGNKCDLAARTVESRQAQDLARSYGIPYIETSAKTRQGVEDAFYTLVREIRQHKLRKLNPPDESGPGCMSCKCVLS

[4] = system: human lung cancer strain NCI-H441;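 note: cell proliferation inhibition after four days measured by CellTiter-Glo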
[5] = SPR Single Cycle Kinetics, 1:1 binding model

SMILES	Kd ([1]; SPR, Single Cycle Kinetics) [nM]	IC50 [4] [nM]	Kd ([1]; SPR, Single Cycle Kinetics, 1:1 binding model) [nM]	NRAS/KRAS (ratio of KD value for NRAS to KD value for KRAS) [2]	HRAS/KRAS (ratio of KD value for HRAS to KD value for KRAS) [3]	Kd [1, 5] [nM]	NRAS/KRAS (ratio of KD value with respect to GDP-bound NRAS wild-type protein to KD value with respect to KRAS) [2]	HRAS/KRAS (ratio of KD value with respect to GDP-bound HRAS wild-type protein to KD value with respect to KRAS) [3]	NRAS/KRAS (ratio of KD value for NRAS to KD value for KRAS) ([2]; KD ratio class)	HRAS/KRAS (ratio of KD value for HRAS to KD value for KRAS) ([3]; KD ratio class)
CCOC[C@H]1C(=O)N[C@@H]([C@@H](C)CC)C(=O)N(C)CC(=O)N(C)[C@H]2C/C=C\CCN(C2=O)[C@@H](CC2CCC(F)(F)CC2)C(=O)N(C)CC(=O)N[C@@H](CCc2cc(F)c(C(F)(F)F)c(F)c2)C(=O)N2C[C@H](OCC)C[C@H]2C(=O)NC2(CC(C)(C)C2)C(=O)N(C)[C@@H](C(CC)CC)C(=O)N(C)[C@H](C(=O)N(C)C)CC(=O)N1C [PP2450]	0.55	29.2		A (a compound having 10 or more and less than 20 is denoted as A)	A (a compound having 10 or more and less than 20 is denoted as A)					
CCC(CC)[C@H]1C(=O)N(C)[C@H](C(=O)N2CCCCC2)CC(=O)N(C)[C@@H](COC)C(=O)N[C@@H]([C@@H](C)CC)C(=O)N(C)CC(=O)N(C)[C@H]2C/C=C\CCN(C2=O)[C@@H](Cc2ccc(C(F)(F)F)cc2)C(=O)N(C)CC(=O)N[C@@H](CCc2ccc(Cl)c(Cl)c2)C(=O)N2C[C@H](OC(C)C)C[C@H]2C(=O)NC2(CC(C)(C)C2)C(=O)N1C [PP2612]		199				2.4	AA (a compound having 20 or more is denoted as AA)	A (a compound having 10 or more and less than 20 is denoted as A)		

Now those with a lower IC50 [4], led by results:

Kd ([1]; SPR, Single Cycle Kinetics) [nM]	IC50 [4] [nM]	Kd ([1]; SPR, Single Cycle Kinetics, 1:1 binding model) [nM]	SMILES	NRAS/KRAS (ratio of KD value for NRAS to KD value for KRAS) [2]	HRAS/KRAS (ratio of KD value for HRAS to KD value for KRAS) [3]	Kd [1, 5] [nM]	NRAS/KRAS (ratio of KD value with respect to GDP-bound NRAS wild-type protein to KD value with respect to KRAS) [2]	HRAS/KRAS (ratio of KD value with respect to GDP-bound HRAS wild-type protein to KD value with respect to KRAS) [3]	NRAS/KRAS (ratio of KD value for NRAS to KD value for KRAS) ([2]; KD ratio class)	HRAS/KRAS (ratio of KD value for HRAS to KD value for KRAS) ([3]; KD ratio class)
	7.6		CCC[C@H]1C(=O)N[C@@H]([C@@H](C)CC)C(=O)N(C2CC2)CC(=O)N(C)[C@H]2C/C=C\CCN(C2=O)[C@@H](Cc2ccc(C)cc2)C(=O)N(C)CC(=O)N[C@@H](CCc2cc(F)c(C(F)(F)F)c(F)c2)C(=O)N2C[C@H](OCC)C[C@H]2C(=O)NC2(CC(C)(C)C2)C(=O)N(C)[C@@H](CC(C)(C)C)C(=O)N(C)[C@H](C(=O)N(C)C)CC(=O)N1C [PP2718]			0.33	A (a compound having 10 or more and less than 20 is denoted as A)	A (a compound having 10 or more and less than 20 is denoted as A)		
	6.4	0.046	CCO[C@@H]1C[C@H]2C(=O)NC3(CCC3)C(=O)N(C)[C@@H](C3CCCC3)C(=O)N(C)[C@H](C(=O)N(C)C)CC(=O)N(C)[C@@H](CC3CC3)C(=O)N[C@@H]([C@@H](C)CC)C(=O)N(C)CC(=O)N(C)[C@H]3C/C=C\CCN(C3=O)[C@@H](Cc3ccc(C(F)(F)F)cc3)C(=O)N(C)CC(=O)N[C@@H](CCc3ccc(C(F)(F)F)c(OC)c3)C(=O)N2C1 [PP1247, (2S,8S,12R,14S,20S,23S,27S,30S,36S,38Z)-20-cyclopentyl-27-(cyclopropylmethyl)-12-ethoxy-8-[2-[3-methoxy-4-(trifluoromethyl)phenyl]ethyl]-N,N,4,19,22,26,32,35-octamethyl-30-[(1S)-1-methylpropyl]-3,6,9,15,18,21,25,28,31,34,42-undecaoxo-2-[[4-(trifluoromethyl)phenyl]methyl]spiro[1,4,7,10,16,19,22,26,29,32,35-undecazatricyclo[34.5.1.0^10,14]dotetracont-38-ene-17,1′-cyclobutane]-23-carboxamide]						A (a compound having 10 or more and less than 20 is denoted as A)	A (a compound having 10 or more and less than 20 is denoted as A)
0.2	19.2		CCO[C@@H]1C[C@H]2C(=O)NC3(CCC3)C(=O)N(C)[C@@H](C(CC)CC)C(=O)N(C)[C@H](C(=O)N(C)C)CC(=O)N(C)[C@@H](CC)C(=O)N[C@@H]([C@@H](C)CC)C(=O)N(C)CC(=O)N(C)[C@H]3C/C=C\CCN(C3=O)[C@@H](Cc3ccc(C(F)(F)F)cc3)C(=O)N(C)CC(=O)N[C@@H](CCc3cc(F)c(C(F)(F)F)c(F)c3)C(=O)N2C1 [PP1200]	AA (a compound having 20 or more is denoted as AA)	A (a compound having 10 or more and less than 20 is denoted as A)					
